Test results published in PubChem BioAssay AID1963967 (Molecular Pharmacology Branch, DTP, NCI, 2024).

Test system: 855422-203-R-J1-PDC spheroids with HUVEC/MSC, viability
Experiment: Anticancer human tumor 855422-203-R-J1-PDC patient-derived bladder carcinoma cell line growth inhibition [PI3K]
Details: for viability, T/C: stronger effect = lower value
How it was run: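 Targeted small molecules plus PI3K inhibitors, half-log dose series from Cmax (default top 10 microM), were applied to heterotypic spheroids of cancer cells with HUVEC and MSCs. Viability indicated growth inhibition.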

[1] = curve of first compound, second compound 0.00316 µM
[2] = curve of first compound, second compound 0.01 µM
[3] = curve of first compound, second compound 0.0316 µM
[4] = curve of first compound, second compound 0.1 µM
[5] = curve of first compound, second compound 0.316 µM
[6] = curve of first compound, second compound 1 µM
[7] = second compound 0.0316 µM, first compound 0.0316 µM
[8] = second compound 0.0316 µM, first compound 0.1 µM
[9] = second compound 0.0316 µM, first compound 0.316 µM
[10] = second compound 0.0316 µM, first compound 1 µM
[11] = second compound 0.0316 µM, first compound 3.16 µM
[12] = second compound 0.0316 µM, first compound 10 µM
[13] = second compound 0.1 µM, first compound 0.0316 µM
[14] = second compound 0.1 µM, first compound 0.1 µM
[15] = second compound 0.1 µM, first compound 0.316 µM
[16] = second compound 0.1 µM, first compound 1 µM
[17] = second compound 0.1 µM, first compound 3.16 µM
[18] = second compound 0.1 µM, first compound 10 µM
[19] = second compound 0.316 µM, first compound 0.0316 µM
[20] = second compound 0.316 µM, first compound 0.1 µM
[21] = second compound 0.316 µM, first compound 0.316 µM
[22] = second compound 0.316 µM, first compound 1 µM
[23] = second compound 0.316 µM, first compound 3.16 µM
[24] = second compound 0.316 µM, first compound 10 µM
[25] = second compound 1 µM, first compound 0.0316 µM
[26] = second compound 1 µM, first compound 0.1 µM
[27] = second compound 1 µM, first compound 0.316 µM
[28] = second compound 1 µM, first compound 1 µM
[29] = second compound 1 µM, first compound 3.16 µM
[30] = second compound 1 µM, first compound 10 µM
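Note: agents incubated with spheroids for one week before read-out.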
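Throughout, for viability, T/C: 100% = DMSO vehicle-treated control wells.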

Cn1cnc2c(F)c(Nc3ccc(Br)cc3Cl)c(C(=O)NOCCO)cc21 + COc1c(OCCCN2CCOCC2)ccc2c3n(c(=NC(=O)c4cnc(N)nc4)nc12)CCN3
IC50 [1]: 2440 nM | IC50 [2]: 1570 nM | IC50 [3]: 283 nM | IC50 [4]: < 9.49 nM | IC50 [5]: < 9.49 nM | IC50 [6]: < 9.49 nM | viability, T/C (second compound 0.00316 µM, first compound 0.00949 µM): 94.1% | viability, T/C (second compound 0.00316 µM, first compound 0.03 µM): 88.1% | viability, T/C (second compound 0.00316 µM, first compound 0.0949 µM): 91.4% | viability, T/C (second compound 0.00316 µM, first compound 0.3 µM): 93.5% | viability, T/C (second compound 0.00316 µM, first compound 0.949 µM): 90.1% | viability, T/C (second compound 0.00316 µM, first compound 3 µM): 41.2% | viability, T/C (second compound 0.01 µM, first compound 0.00949 µM): 73.6% | viability, T/C (second compound 0.01 µM, first compound 0.03 µM): 90.6% | viability, T/C (second compound 0.01 µM, first compound 0.0949 µM): 82% | viability, T/C (second compound 0.01 µM, first compound 0.3 µM): 85.9% | viability, T/C (second compound 0.01 µM, first compound 0.949 µM): 66.2% | viability, T/C (second compound 0.01 µM, first compound 3 µM): 29.1% | viability, T/C (second compound 0.0316 µM, first compound 0.00949 µM): 64% | viability, T/C (second compound 0.0316 µM, first compound 0.03 µM): 64% | viability, T/C (second compound 0.0316 µM, first compound 0.0949 µM): 60.8% | viability, T/C (second compound 0.0316 µM, first compound 0.3 µM): 47.1% | viability, T/C (second compound 0.0316 µM, first compound 0.949 µM): 34.6% | viability, T/C (second compound 0.0316 µM, first compound 3 µM): 12.7% | viability, T/C (second compound 0.1 µM, first compound 0.00949 µM): 30.8% | viability, T/C (second compound 0.1 µM, first compound 0.03 µM): 26.1% | viability, T/C (second compound 0.1 µM, first compound 0.0949 µM): 22.2% | viability, T/C (second compound 0.1 µM, first compound 0.3 µM): 21.8% | viability, T/C (second compound 0.1 µM, first compound 0.949 µM): 10.2% | viability, T/C (second compound 0.1 µM, first compound 3 µM): 2.98% | viability, T/C (second compound 0.316 µM, first compound 0.00949 µM): 8.62% | viability, T/C (second compound 0.316 µM, first compound 0.03 µM): 6.53% | viability, T/C (second compound 0.316 µM, first compound 0.0949 µM): 5.43% | viability, T/C (second compound 0.316 µM, first compound 0.3 µM): 4.82% | viability, T/C (second compound 0.316 µM, first compound 0.949 µM): 2.2% | viability, T/C (second compound 0.316 µM, first compound 3 µM): 0.34% | viability, T/C (second compound 1 µM, first compound 0.00949 µM): 3.01% | viability, T/C (second compound 1 µM, first compound 0.03 µM): 3.36% | viability, T/C (second compound 1 µM, first compound 0.0949 µM): 1.65% | viability, T/C (second compound 1 µM, first compound 0.3 µM): 2.9% | viability, T/C (second compound 1 µM, first compound 0.949 µM): 0.38% | viability, T/C (second compound 1 µM, first compound 3 µM): 0.99%

CC(Cn1ccc(-c2ccc(C#N)c(Cl)c2)n1)NC(=O)c1cc(C(C)O)[nH]n1 (stereo not drawn) + COc1c(OCCCN2CCOCC2)ccc2c3n(c(=NC(=O)c4cnc(N)nc4)nc12)CCN3
IC50 [1]: > 10000 nM | IC50 [2]: > 10000 nM | IC50 [3]: > 10000 nM | IC50 [4]: < 31.6 nM | IC50 [5]: < 31.6 nM | IC50 [6]: < 31.6 nM | viability, T/C (second compound 0.00316 µM, first compound 0.0316 µM): 110% | viability, T/C (second compound 0.00316 µM, first compound 0.1 µM): 90.4% | viability, T/C (second compound 0.00316 µM, first compound 0.316 µM): 99.9% | viability, T/C (second compound 0.00316 µM, first compound 1 µM): 80.3% | viability, T/C (second compound 0.00316 µM, first compound 3.16 µM): 108% | viability, T/C (second compound 0.00316 µM, first compound 10 µM): 86.8% | viability, T/C (second compound 0.01 µM, first compound 0.0316 µM): 91.4% | viability, T/C (second compound 0.01 µM, first compound 0.1 µM): 83.7% | viability, T/C (second compound 0.01 µM, first compound 0.316 µM): 87.4% | viability, T/C (second compound 0.01 µM, first compound 1 µM): 103% | viability, T/C (second compound 0.01 µM, first compound 3.16 µM): 86.6% | viability, T/C (second compound 0.01 µM, first compound 10 µM): 72.8% | viability, T/C [7]: 60.4% | viability, T/C [8]: 64.4% | viability, T/C [9]: 59.8% | viability, T/C [10]: 68.7% | viability, T/C [11]: 75.3% | viability, T/C [12]: 58.6% | viability, T/C [13]: 26.6% | viability, T/C [14]: 25.5% | viability, T/C [15]: 27.3% | viability, T/C [16]: 30.1% | viability, T/C [17]: 27.9% | viability, T/C [18]: 25.3% | viability, T/C [19]: 7.87% | viability, T/C [20]: 8.84% | viability, T/C [21]: 7.77% | viability, T/C [22]: 9.07% | viability, T/C [23]: 10.8% | viability, T/C [24]: 7.91% | viability, T/C [25]: 5.17% | viability, T/C [26]: 4.25% | viability, T/C [27]: 3.21% | viability, T/C [28]: 3.76% | viability, T/C [29]: 4.49% | viability, T/C [30]: 3.05%

CC(C)n1nc(-c2ccc3oc(N)nc3c2)c2c(N)ncnc21
viability, T/C (compound 0.000316 µM): 113% [middle of 4 runs] | viability, T/C (compound 0.001 µM): 93.4% [middle of 4 runs] | viability, T/C (compound 0.00316 µM): 113% [middle of 4 runs] | viability, T/C (compound 0.01 µM): 91.1% [middle of 4 runs] | viability, T/C (compound 0.0316 µM): 80.6% [middle of 4 runs] | viability, T/C (compound 0.1 µM): 17.8% [middle of 4 runs] | IC50 (curve of compound): 55.3 nM [middle of 4 runs]

Cn1nccc1Nc1nccc(-c2ccn(C(CO)c3ccc(Cl)c(F)c3)c(=O)c2)n1 (stereo not drawn) + Cc1nc(NC(=O)N2CCCC2C(N)=O)sc1-c1ccnc(C(C)(C)C(F)(F)F)c1
IC50 [3]: 9480 nM | IC50 [4]: 8220 nM | IC50 [5]: 6990 nM | IC50 [6]: 4270 nM | IC50 (curve of first compound, second compound 3.16 µM): < 31.6 nM | IC50 (curve of first compound, second compound 10 µM): < 31.6 nM | viability, T/C [7]: 106% | viability, T/C [8]: 95.9% | viability, T/C [9]: 103% | viability, T/C [10]: 89% | viability, T/C [11]: 86.4% | viability, T/C [12]: 47.5% | viability, T/C [13]: 99.3% | viability, T/C [14]: 93.3% | viability, T/C [15]: 94.8% | viability, T/C [16]: 85.9% | viability, T/C [17]: 85% | viability, T/C [18]: 43.2% | viability, T/C [19]: 96% | viability, T/C [20]: 89.3% | viability, T/C [21]: 96.4% | viability, T/C [22]: 92.2% | viability, T/C [23]: 87.9% | viability, T/C [24]: 32.8% | viability, T/C [25]: 70.1% | viability, T/C [26]: 70.1% | viability, T/C [27]: 63.4% | viability, T/C [28]: 67.5% | viability, T/C [29]: 61.5% | viability, T/C [30]: 17.9% | viability, T/C (second compound 3.16 µM, first compound 0.0316 µM): 42.3% | viability, T/C (second compound 3.16 µM, first compound 0.1 µM): 39.6% | viability, T/C (second compound 3.16 µM, first compound 0.316 µM): 40.7% | viability, T/C (second compound 3.16 µM, first compound 1 µM): 35.2% | viability, T/C (second compound 3.16 µM, first compound 3.16 µM): 26.9% | viability, T/C (second compound 3.16 µM, first compound 10 µM): 10.1% | viability, T/C (second compound 10 µM, first compound 0.0316 µM): 24.6% | viability, T/C (second compound 10 µM, first compound 0.1 µM): 21.6% | viability, T/C (second compound 10 µM, first compound 0.316 µM): 19.4% | viability, T/C (second compound 10 µM, first compound 1 µM): 14.4% | viability, T/C (second compound 10 µM, first compound 3.16 µM): 8.05% | viability, T/C (second compound 10 µM, first compound 10 µM): 4.78%
